Experimental data from US20050250801A1, “Method of treating cancer with azaspirane compositions” (priority 2003, published 2005).
Read-outs that look alike come from different tables or passages of the source.

Assays:
Assay in all cases: NCI in vitro SRB assay, Melanoma
Type in all cases: cell-based
UACC-62 = details: for CC50 / GI50: Homo sapiens
Procedure: (§1) An in vitro assay which tested the ability of N,N,-diethyl-8,8-dipropyl-2-azaspiro[4,5]decane-2-propanamine dimaleate (Compound 1) to inhibit the growth of known cancer cell lines was performed by the National Cancer Institute in accordance with standard procedures. See: Lin, Z. X., Hoult, J. R., and Raman, A. Sulphorhodamine B assay for measuring proliferation of a pigmented melanocyte cell line and its application to the evaluation of crude drugs used in the treatment of vitiligo. J Ethnopharmacol. 66: 141-150, 1999. Briefly, selected tumor cell lines were cultured in media containing five different concentrations of Compound 1. After 48 hours of continuous exposure, a sulforhodamine B (SRB) assay was used to estimate cell viability or growth via optical measurements.
(§2) From the measurements, the following values were determined: 1) the concentration of Compound 1 at which a tumor cell growth inhibition of 50% (relative to control) occurs (GI50), 2) the concentration of Compound 1 at which no growth occurs (total growth inhibition, TGI), and 3) the concentration of Compound 1 at which the […] (LC 50). […] FIG. 6 illustrates, graphically, tumor cell growth as a function of Compound 1 concentration of the scanned tumor cell lines.

M14 = details: for CC50 / GI50: Homo sapiens
Procedure: as §1, §2

SK-MEL-2 = details: for CC50 / GI50: Homo sapiens
Procedure: as §1, §2

MALME-3M = details: for CC50 / GI50: Homo sapiens, Malme-3M
Procedure: as §1, §2

SK-MEL-5 = details: for CC50 / GI50: Homo sapiens
Procedure: as §1, §2

UACC-257 = details: for CC50 / GI50: Homo sapiens
Procedure: as §1, §2

LOX IMVI = details: for GI50 / CC50: Homo sapiens
Procedure: as §1, §2

SK-MEL-28 = details: for CC50 / GI50: Homo sapiens
Procedure: as §1, §2

[1] = UACC-62, Log10 conc -4.0 Moles/L
[2] = UACC-62, Log10 conc -5.0 Moles/L
[3] = UACC-62, Log10 conc -6.0 Moles/L
[4] = UACC-62, Log10 conc -7.0 Moles/L
[5] = UACC-62, Log10 conc -8.0 Moles/L
[6] = SK-MEL-2, Log10 conc -4.0 Moles/L
[7] = SK-MEL-2, Log10 conc -5.0 Moles/L
[8] = SK-MEL-2, Log10 conc -6.0 Moles/L
[9] = SK-MEL-2, Log10 conc -7.0 Moles/L
[10] = SK-MEL-2, Log10 conc -8.0 Moles/L
[11] = read-out: Log10 LC50 (converted)
[12] = read-out: Log10 GI50 (converted)
[13] = MALME-3M, Log10 conc -4.0 Moles/L
[14] = MALME-3M, Log10 conc -5.0 Moles/L
[15] = MALME-3M, Log10 conc -6.0 Moles/L
[16] = MALME-3M, Log10 conc -7.0 Moles/L
[17] = MALME-3M, Log10 conc -8.0 Moles/L
[18] = SK-MEL-5, Log10 conc -4.0 Moles/L
[19] = SK-MEL-5, Log10 conc -5.0 Moles/L
[20] = SK-MEL-5, Log10 conc -6.0 Moles/L
[21] = SK-MEL-5, Log10 conc -7.0 Moles/L
[22] = SK-MEL-5, Log10 conc -8.0 Moles/L
[23] = UACC-257, Log10 conc -4.0 Moles/L
[24] = UACC-257, Log10 conc -5.0 Moles/L
[25] = UACC-257, Log10 conc -6.0 Moles/L
[26] = UACC-257, Log10 conc -7.0 Moles/L
[27] = UACC-257, Log10 conc -8.0 Moles/L
[28] = SK-MEL-28, Log10 conc -4.0 Moles/L
[29] = SK-MEL-28, Log10 conc -5.0 Moles/L
[30] = SK-MEL-28, Log10 conc -6.0 Moles/L
[31] = SK-MEL-28, Log10 conc -7.0 Moles/L
[32] = SK-MEL-28, Log10 conc -8.0 Moles/L

CCCC1(CCC)CCC2(CCN(CCCN(CC)CC)C2)CC1.O=C(O)/C=C\C(=O)O.O=C(O)/C=C\C(=O)O [Compound 1, N,N,-diethyl-8,8-dipropyl-2-azaspiro[4,5]decane-2-propanamine dimaleate]
CC50 (UACC-62; UACC-62, read-out: LC50): 2530 nM
CC50 (UACC-62; UACC-62, read-out: Log10 LC50 (converted)): 2510 nM
GI50 (UACC-62; UACC-62, read-out: GI50): 218 nM
GI50 (UACC-62; UACC-62, read-out: Log10 GI50 (converted)): 219 nM
Log10 TGI (UACC-62; UACC-62): −6.19
TGI (UACC-62; UACC-62): 642 nM
Mean Optical Densities (UACC-62; [1]): 0.060
Percent Growth (UACC-62; [1]): −89%
Mean Optical Densities (UACC-62; [2]): 0.034
Percent Growth (UACC-62; [2]): −94%
Mean Optical Densities (UACC-62; [3]): 0.421
Percent Growth (UACC-62; [3]): −21%
Mean Optical Densities (UACC-62; [4]): 1.379
Percent Growth (UACC-62; [4]): 86%
Mean Optical Densities (UACC-62; [5]): 1.375
Percent Growth (UACC-62; [5]): 85%
CC50 (M14; M14, read-out: LC50): 1800 nM
CC50 (M14; M14, read-out: Log10 LC50 (converted)): 1820 nM
GI50 (M14; M14, read-out: GI50): 203 nM
GI50 (M14; M14, read-out: Log10 GI50 (converted)): 204 nM
Log10 TGI (M14; M14): −6.32
TGI (M14; M14): 477 nM
Mean Optical Densities (M14; M14, Log10 conc -4.0 Moles/L): 0.109
Percent Growth (M14; M14, Log10 conc -4.0 Moles/L): −61%
Mean Optical Densities (M14; M14, Log10 conc -5.0 Moles/L): 0.086
Percent Growth (M14; M14, Log10 conc -5.0 Moles/L): −69%
Mean Optical Densities (M14; M14, Log10 conc -6.0 Moles/L): 0.158
Percent Growth (M14; M14, Log10 conc -6.0 Moles/L): −43%
Mean Optical Densities (M14; M14, Log10 conc -7.0 Moles/L): 0.838
Percent Growth (M14; M14, Log10 conc -7.0 Moles/L): 92%
Mean Optical Densities (M14; M14, Log10 conc -8.0 Moles/L): 0.884
Percent Growth (M14; M14, Log10 conc -8.0 Moles/L): 99%
CC50 (SK-MEL-2; SK-MEL-2, read-out: LC50): > 100 µM
CC50 (SK-MEL-2; SK-MEL-2, read-out: Log10 LC50 (converted)): > 100 µM
GI50 (SK-MEL-2; SK-MEL-2, read-out: GI50): 3.45 µM
GI50 (SK-MEL-2; SK-MEL-2, read-out: Log10 GI50 (converted)): 3.47 µM
Log10 TGI (SK-MEL-2; SK-MEL-2): >−4.00
TGI (SK-MEL-2; SK-MEL-2): >100 µM
Mean Optical Densities (SK-MEL-2; [6]): 0.168
Percent Growth (SK-MEL-2; [6]): 7%
Mean Optical Densities (SK-MEL-2; [7]): 0.167
Percent Growth (SK-MEL-2; [7]): 7%
Mean Optical Densities (SK-MEL-2; [8]): 1.199
Percent Growth (SK-MEL-2; [8]): 100%
Mean Optical Densities (SK-MEL-2; [9]): 1.191
Percent Growth (SK-MEL-2; [9]): 99%
Mean Optical Densities (SK-MEL-2; [10]): 1.191
Percent Growth (SK-MEL-2; [10]): 99%
CC50 (MALME-3M; read-out: LC50): 5.9 µM
CC50 (MALME-3M; [11]): 5.89 µM
GI50 (MALME-3M; read-out: GI50): 1600 nM
GI50 (MALME-3M; [12]): 1580 nM
Log10 TGI (MALME-3M; MALME-3M): −5.51
TGI (MALME-3M; MALME-3M): 3.07 µM
Mean Optical Densities (MALME-3M; [13]): 0.084
Percent Growth (MALME-3M; [13]): −91%
Mean Optical Densities (MALME-3M; [14]): 0.089
Percent Growth (MALME-3M; [14]): −91%
Mean Optical Densities (MALME-3M; [15]): 1.108
Percent Growth (MALME-3M; [15]): 86%
Mean Optical Densities (MALME-3M; [16]): 1.047
Percent Growth (MALME-3M; [16]): 55%
Mean Optical Densities (MALME-3M; [17]): 1.103
Percent Growth (MALME-3M; [17]): 84%
CC50 (SK-MEL-5; SK-MEL-5, read-out: LC50): 5.25 µM
CC50 (SK-MEL-5; SK-MEL-5, read-out: Log10 LC50 (converted)): 5.25 µM
GI50 (SK-MEL-5; SK-MEL-5, read-out: GI50): 1280 nM
GI50 (SK-MEL-5; SK-MEL-5, read-out: Log10 GI50 (converted)): 1290 nM
Log10 TGI (SK-MEL-5; SK-MEL-5): −5.59
TGI (SK-MEL-5; SK-MEL-5): 2.59 µM
Mean Optical Densities (SK-MEL-5; [18]): −0.001
Percent Growth (SK-MEL-5; [18]): −100%
Mean Optical Densities (SK-MEL-5; [19]): 0.021
Percent Growth (SK-MEL-5; [19]): −96%
Mean Optical Densities (SK-MEL-5; [20]): 1.420
Percent Growth (SK-MEL-5; [20]): 68%
Mean Optical Densities (SK-MEL-5; [21]): 1.797
Percent Growth (SK-MEL-5; [21]): 95%
Mean Optical Densities (SK-MEL-5; [22]): 1.779
Percent Growth (SK-MEL-5; [22]): 93%
CC50 (UACC-257; UACC-257, read-out: LC50): 8.74 µM
CC50 (UACC-257; UACC-257, read-out: Log10 LC50 (converted)): 8.71 µM
GI50 (UACC-257; UACC-257, read-out: GI50): 1740 nM
GI50 (UACC-257; UACC-257, read-out: Log10 GI50 (converted)): 1740 nM
Log10 TGI (UACC-257; UACC-257): −5.41
TGI (UACC-257; UACC-257): 3.9 µM
Mean Optical Densities (UACC-257; [23]): 0.113
Percent Growth (UACC-257; [23]): −75%
Mean Optical Densities (UACC-257; [24]): 0.190
Percent Growth (UACC-257; [24]): −58%
Mean Optical Densities (UACC-257; [25]): 1.302
Percent Growth (UACC-257; [25]): 84%
Mean Optical Densities (UACC-257; [26]): 1.427
Percent Growth (UACC-257; [26]): 97%
Mean Optical Densities (UACC-257; [27]): 1.403
Percent Growth (UACC-257; [27]): 94%
Log10 TGI (LOX IMVI): −5.74
TGI (LOX IMVI): 1.84 µM
GI50 (LOX IMVI; read-out: GI50): 515 nM
CC50 (LOX IMVI; read-out: LC50): 4.29 µM
GI50 (LOX IMVI; [12]): 513 nM
CC50 (LOX IMVI; [11]): 4.27 µM
Mean Optical Densities (LOX IMVI; Log10 conc -4.0 Moles/L): −0.030
Percent Growth (LOX IMVI; Log10 conc -4.0 Moles/L): −100%
Mean Optical Densities (LOX IMVI; Log10 conc -5.0 Moles/L): −0.044
Percent Growth (LOX IMVI; Log10 conc -5.0 Moles/L): −100%
Mean Optical Densities (LOX IMVI; Log10 conc -6.0 Moles/L): 0.595
Percent Growth (LOX IMVI; Log10 conc -6.0 Moles/L): 36%
Mean Optical Densities (LOX IMVI; Log10 conc -7.0 Moles/L): 1.037
Percent Growth (LOX IMVI; Log10 conc -7.0 Moles/L): 85%
Mean Optical Densities (LOX IMVI; Log10 conc -8.0 Moles/L): 1.072
Percent Growth (LOX IMVI; Log10 conc -8.0 Moles/L): 89%
CC50 (SK-MEL-28; SK-MEL-28, read-out: LC50): 4.86 µM
CC50 (SK-MEL-28; SK-MEL-28, read-out: Log10 LC50 (converted)): 4.9 µM
GI50 (SK-MEL-28; SK-MEL-28, read-out: GI50): 561 nM
GI50 (SK-MEL-28; SK-MEL-28, read-out: Log10 GI50 (converted)): 562 nM
Log10 TGI (SK-MEL-28; SK-MEL-28): −5.72
TGI (SK-MEL-28; SK-MEL-28): 1.89 µM
Mean Optical Densities (SK-MEL-28; [28]): 0.026
Percent Growth (SK-MEL-28; [28]): −95%
Mean Optical Densities (SK-MEL-28; [29]): 0.061
Percent Growth (SK-MEL-28; [29]): −88%
Mean Optical Densities (SK-MEL-28; [30]): 0.846
Percent Growth (SK-MEL-28; [30]): 34%
Mean Optical Densities (SK-MEL-28; [31]): 1.473
Percent Growth (SK-MEL-28; [31]): 98%
Mean Optical Densities (SK-MEL-28; [32]): 1.301
Percent Growth (SK-MEL-28; [32]): 80%
